Data taken from ChEMBL document CHEMBL1148375, “Discovery of a bulky 2-tert-butyl group containing primaquine analogue that exhibits potent blood-schizontocidal antimalarial activities and complete elimination of methemoglobin toxicity” (J Med Chem, 2004).
≈ marks a conversion by molar mass, not a printed value. Calls of active or inactive are those of the source. No cut-off for these calls is given here.

Key:
Format in all cases: functional, organism-based
[1] = system: Mus musculus; assay: (§1) Compound was evaluated for the blood-schizonticidal antimalarial activity against Plasmodium berghei (sensitive strain) in mice (Mus musculus) at 100 mg/kg/day x 4 (oral); indicates that the treated animals show positive parasitaemia either on D+4 or D+7 and usually dieby D+14 (survival=0/6)
[2] = system: Mus musculus; assay: as §1, with “yoelii nigeriensis (multidrug-resistant” for “berghei (sensitive”, “orD+7” for “or D+7”, “die by” for “dieby”
[3] = system: Plasmodium falciparum; assay: Inhibitory concentration against chloroquine-sensitive Plasmodium falciparum
[4] = system: Mus musculus; assay: Compound was evaluated for the blood-schizonticidal antimalarial activity against Plasmodium berghei (sensitive strain) in mice (Mus musculus) at 10 mg/kg/day x 4 (oral); indicates that all of the treated animals show negative parasitaemia up to D+7 (survival=4/6)
[5] = system: Mus musculus; assay: Compound was evaluated for the blood-schizonticidal antimalarial activity against Plasmodium berghei (sensitive strain) in mice (Mus musculus) at 25 mg/kg/day x 4 (oral); indicates complete elimination of malaria parasites from the body, and animals survive up to day D+60 (survival=6/6)
[6] = system: Mus musculus; assay: Compound was evaluated for the blood-schizonticidal antimalarial activity against Plasmodium berghei (sensitive strain) in mice (Mus musculus) at 50 mg/kg/day x 4 (oral); indicates complete elimination of malaria parasites from the body, and animals survive up to day D+60 (survival=6/6)
[7] = system: Mus musculus; assay: Compound was evaluated for the blood-schizonticidal antimalarial activity against Plasmodium yoelii nigeriensis (multidrug-resistant strain) in mice (Mus musculus) at 100 mg/kg/day x 4 (oral); indicates complete elimination of malaria parasites from the body, and animalssurvive up to day D
[8] = system: Mus musculus; assay: Compound was evaluated for the blood-schizonticidal antimalarial activity against Plasmodium yoelii nigeriensis (multidrug-resistant strain) in mice (Mus musculus) at 50 mg/kg/day x 4 (oral); indicates that all of the treated animals show negative parasitaemia up to D+7(survival=4/6)
[9] = system: Plasmodium falciparum; assay: Inhibitory activity I50 against chloroquine-sensitive Plasmodium falciparum
[10] = system: Mus musculus; assay: Compound was evaluated for the blood-schizonticidal antimalarial activity against Plasmodium berghei (sensitive strain) in mice (Mus musculus) at 100 mg/kg/day x 4 (oral); indicates complete elimination of malaria parasites from the body, and animals survive up to day D+60 (survival=6/6)

| SMILES | Antimalarial activity [1] | Antimalarial activity [2] | IC50 [3] | Antimalarial activity [4] | Antimalarial activity [5] | Antimalarial activity [6] | Antimalarial activity [7] | Antimalarial activity [8] | IC50 [9] | Antimalarial activity [10] |
| --- | --- | --- | --- | --- | --- | --- | --- | --- | --- | --- |
| COc1cc(NC(C)CCCN)c2nc(C34C[C@H]5C[C@@H](C3)C[C@@H](C4)C5)ccc2c1 (some centres not stated) | inactive | inactive | > 0.5 µg/mL |  |  |  |  |  |  |  |
| COc1cc(NC(C)CCCN)c2ncccc2c1 (configuration not stated) | inactive | inactive |  |  |  |  |  |  |  |  |
| COc1cc(NC(C)CCCN)c2nc(C(C)(C)C)ccc2c1 (configuration not stated) |  |  |  | Active | Curative | Curative | Curative | Active | 0.0391 µg/mL (≈ 0.124 µM) | Curative |
